Source: publication PMC7051184, “C9orf72 arginine-rich dipeptide repeat proteins disrupt karyopherin-mediated nuclear import” (eLife, 2020)
Where a SMILES comes first, the peptide text is derived from it. Where no end group is shown, it is not given here.

Columns and labels:
[1] = target: T1, importin β-mediated nuclear import of Rango (Homo sapiens, UniProt Q14974); test: Permeabilized cell nuclear import assay, Rango, HeLa; assay type: cell-based
[2] = test system: nuclear transport of NLS-NES shuttle proteins; settings: synthetic peptide added to HeLa cells in the culture media; ref Vanneste et al., 2019; cited from earlier work
Source text: (§1) Additional studies have since investigated mechanisms by which individual DPRs may disrupt the nuclear transport apparatus. […] PR20 was previously shown by STE ...

proteasome = settings: ref Gupta et al., 2017; cited from earlier work
Source text: Throughout this study, we observed marked differences in the behavior of GR and PR. […] Based on their divergent molecular properties, the differing behavior of GR and PR is not surprising. On one hand, bot ...

[3] = test system: Nup54 and 98 FG-domain polymers; settings: ref Shi et al., 2017; cited from earlier work
Source text: The rate of passive transport through the NPC is governed by the FG-Nup barrier ([Mohr et al., 2009]; [Timney et al., 2016]; [Frey et al., 2018]), in addition to local concentrations of importin β and RanGTP ([Ma et al., 2012]; [Kapinos et al., 2017]). R-DPR/FG-domain interactions are predicted based on the propensity of arginines to undergo cation-pi interactions with aromatic phenylalanine rings (reviewed by [Gallivan and Dougherty, 1999]; [Banani et al., 2017]). Indeed, previous interactome studies predicted R-DPR interactions with FG-Nups including Nup54, 62, 98, 153, and 214 ([Lin et al., ...

[4] = test system: nuclear import of NLS-BSA; settings: permeabilized HeLa cells; ref Shi et al., 2017; cited from earlier work
Source text: as §1

[5] = target: T1, importin β-mediated nuclear import of Rango; test: Permeabilized cell nuclear import assay, Rango, mouse primary cortical neurons; assay type: cell-based; settings: importin β small molecule inhibitor control
Source text: All animal procedures were approved by the Johns Hopkins Animal Care and Use Committee. Timed pregnant C57BL/6J females (Jackson Laboratory, Bar Harbor, ME) were sacrificed by cervical dislocation at E16, cortex dissociated, and cells plated at 50,000/well on poly-D-lysine/laminin-coated, optical glass-bottom 96-well plates. Growth medium consisted of Neurobasal supplemented with B27, Glutamax, and penicillin/streptomycin (Gibco/ThermoFisher). At 5–7 days in vitro, neurons were rinsed in prewarmed PBS and permeabilized for 4 min. at 37° in a hypotonic solution containing […] Tris-HCl pH 7.5 (to cause osmotic swelling) and 50–150 mg/ml BSA (for molecular crowding/mechanical support). Following permeabilization, cells were placed on ice and rinsed 2 × 5 min in transport buffer (TRB, 20 mM HEPES, 110 mM KOAc, 2 mM Mg(OAc)2, 5 mM NaOAc, 0.5 mM EGTA, 250 mM sucrose, pH 7.3, with protease inhibitor cocktail). All rinse and assay buffers were supplemented with 50 mg/mL BSA. The optimal hypotonic buffer and BSA concentration varied by batch, and was optimized prior to each set of assays for ability to permeabilize the majority of plasma membranes while maintaining nuclear exclusion of a 70 kD fluorescent dextran (ThermoFisher).
Concentrated whole cell lysates were prepared from HEK293T cells (ATCC, mycoplasma negative and validated by STR profiling), grown in 150 mm dishes and sonicated on ice in 1X TRB in the presence of protease inhibitor cocktail (Roche). The lysates were clarified (15 min, 14000 g, 4C), snap frozen in liquid nitrogen, and stored in single use aliquots at −80C. Total HEK cell RNA was extracted using miRNEasy kits according to the manufacturers’ protocol, with DNase digestion (Qiagen). RNA concentration was measured by Nanodrop (ThermoFisher), and all 260/280 ratios were verified to be > 2.0. Energy regeneration (ER) mix consisted of 100 µM ATP, 100 µM GTP, 4 mM creatine phosphate, and 20 U/mL creatine kinase (Roche).
(§2) Reaction mixes consisting of 2.5 mg/ml lysate, ER, fluorescent cargo (200 nM Rango and YFP-M9-CFP, 500 nM GST-GFP-NLS), Hoechst, DPRs, RNA, or inhibitors (100 µM importazole (IPZ, Millipore Sigma); 0.8 mg/mL wheat germ agglutinin (WGA, Millipore Sigma) were assembled on ice during cell permeabilization. DPRs or inhibitors were allowed to equilibrate in cell lysate for at least 30 min prior to initiation of transport. Every plate included: (1) Cargo alone: fluorescent cargo, but no ER or lysate, (2) Untreated controls: fluorescent cargo, ER, and lysate, and (3) Inhibitor: fluorescent cargo, ER, lysate, and IPZ (Rango and GST-GFP-NLS reactions) or WGA (YFP-M9-CFP). Preassembled transport reactions were then transferred onto permeabilized cells via multichannel pipette, and allowed to proceed at room temperature for 2 hr (Rango, YFP-M9-CFP) or 4 hr (GST-GFP-NLS). Cells were fixed in 4% paraformaldehyde/PBS, rinsed 2x with PBS, and transferred to 50% glycerol/PBS for immediate imaging.
For a subset of neuron transport assays, transport was monitored live via time lapse imaging every 5 min for 30 min. In a subset of HeLa assays, transport reactions were centrifuged before use at 14,000g × 15 min to separate soluble and insoluble fractions. In another variation, the transport lysate + DPR and ER mix was allowed to preincubate on the permeabilized HeLa cells for 1 hour prior to initiation of transport, rinsed 1x with TRB, and transport initiated with fresh lysate, cargo, and ER.
Multiple non-overlapping fields per well (4 for time-lapse imaging, 9-16 for fixed imaging), were captured at 40x on an ImageXpress Micro XLS high-content microscope (Molecular Devices, San Jose, CA), and the ratio of nuclear to cytoplasmic fluorescence intensity was calculated using the MetaXpress automated translocation-enhanced module. Raw data were filtered to exclude autofluorescence and the mean N/C ratio from wells without ER or cell lysate was subtracted from all values.

[6] = target: T1, importin β-mediated nuclear import of Rango; test: Fractionated Rango transport assay (aggregates present or supernatant only), HeLa; assay type: cell-based; settings: with AF647-labeled importin β
Method: A single cell-derived clone of HeLa cells (ATCC, Manassas, VA; mycoplasma negative and validated by STR profiling) were maintained in OptiMEM (Gibco/ThermoFisher) with 4% FBS and plated on uncoated optical glass-bottom 96 well plates, at appropriate densities to reach 70–90% confluence on the day of the transport assay. To permeabilize, cells were rinsed for 2 min in ice-cold PBS, and permeabilized on ice for 10 min in 15–30 µg/mL digitonin (Calbiochem, San Diego, CA) in permeabilization buffer (PRB, 20 mM HEPES, 110 mM KOAc, 5 mM Mg(OAc)2, 0.5 mM EGTA, 250 mM sucrose, pH 7.5, with protease inhibitor cocktail). Following permeabilization, cells were placed on ice and rinsed 3 × 5 min in transport buffer (TRB, 20 mM HEPES, 110 mM KOAc, 2 mM Mg(OAc)2, 5 mM NaOAc, 0.5 mM EGTA, 250 mM sucrose, pH 7.3, with protease inhibitor cocktail). The optimal digitonin concentration varied by cell density and passage number, and was optimized prior to each set of assays for the ability to permeabilize the majority of plasma membranes while maintaining nuclear exclusion of a 70 kD fluorescent dextran (ThermoFisher).
as §2
For a subset of neuron transport assays, transport was monitored live via time lapse imaging every 5 min for 30 min. […]
Multiple non-overlapping fields per well (4 for time-lapse imaging, 9-16 for fixed imaging), were captured at 40x on an ImageXpress Micro XLS high-content microscope (Molecular Devices, San Jose, CA), and the ratio of nuclear to cytoplasmic fluorescence intensity was calculated using the MetaXpress automated translocation-enhanced module. […] Resulting N/C ratios were expressed as % untreated, to permit comparisons across biological replicates.

T1 sequence (Q14974 whole entry): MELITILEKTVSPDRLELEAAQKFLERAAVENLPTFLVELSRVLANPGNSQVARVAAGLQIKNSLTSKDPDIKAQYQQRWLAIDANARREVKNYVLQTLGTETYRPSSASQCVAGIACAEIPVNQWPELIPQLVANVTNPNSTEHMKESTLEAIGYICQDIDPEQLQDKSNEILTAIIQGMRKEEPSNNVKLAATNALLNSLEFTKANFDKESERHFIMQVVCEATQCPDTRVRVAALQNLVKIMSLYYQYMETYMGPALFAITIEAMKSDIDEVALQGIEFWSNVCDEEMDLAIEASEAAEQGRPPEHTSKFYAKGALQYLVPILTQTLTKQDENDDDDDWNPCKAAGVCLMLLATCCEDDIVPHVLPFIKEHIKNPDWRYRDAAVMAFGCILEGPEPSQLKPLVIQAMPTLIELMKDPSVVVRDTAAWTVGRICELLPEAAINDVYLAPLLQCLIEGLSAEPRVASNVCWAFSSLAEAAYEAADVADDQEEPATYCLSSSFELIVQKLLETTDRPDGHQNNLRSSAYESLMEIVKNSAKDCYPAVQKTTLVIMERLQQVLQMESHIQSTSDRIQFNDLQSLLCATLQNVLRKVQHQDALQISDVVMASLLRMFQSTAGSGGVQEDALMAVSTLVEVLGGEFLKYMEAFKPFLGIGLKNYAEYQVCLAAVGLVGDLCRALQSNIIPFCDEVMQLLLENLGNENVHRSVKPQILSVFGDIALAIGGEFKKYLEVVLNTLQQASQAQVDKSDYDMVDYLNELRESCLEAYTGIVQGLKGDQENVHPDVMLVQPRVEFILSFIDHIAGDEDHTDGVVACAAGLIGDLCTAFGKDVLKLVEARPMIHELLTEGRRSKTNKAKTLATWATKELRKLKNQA

OCCCCCCO [1,6-hexanediol]
Reversal of mild nuclear import inhibition ([1]; 25 µM PR10): neither 1,6-hexanediol nor exogenous importin β could reverse mild nuclear import inhibition | Effect on Rango import at baseline ([1]; no DPR): caused dose-dependent inhibition at baseline

N=C(N)NCCC[C@H](NC(=O)CNC(=O)[C@H](CCCNC(=N)N)NC(=O)CNC(=O)[C@H](CCCNC(=N)N)NC(=O)CNC(=O)[C@H](CCCNC(=N)N)NC(=O)CNC(=O)[C@H](CCCNC(=N)N)NC(=O)CNC(=O)[C@H](CCCNC(=N)N)NC(=O)CNC(=O)[C@H](CCCNC(=N)N)NC(=O)CNC(=O)[C@H](CCCNC(=N)N)NC(=O)CNC(=O)[C@H](CCCNC(=N)N)NC(=O)CNC(=O)[C@H](CCCNC(=N)N)NC(=O)CNC(=O)[C@H](CCCNC(=N)N)NC(=O)CNC(=O)[C@H](CCCNC(=N)N)NC(=O)CNC(=O)[C@H](CCCNC(=N)N)NC(=O)CNC(=O)[C@H](CCCNC(=N)N)NC(=O)CNC(=O)[C@H](CCCNC(=N)N)NC(=O)CNC(=O)[C@H](CCCNC(=N)N)NC(=O)CNC(=O)[C@H](CCCNC(=N)N)NC(=O)CNC(=O)[C@H](CCCNC(=N)N)NC(=O)CNC(=O)[C@H](CCCNC(=N)N)NC(=O)CNC(=O)[C@H](CCCNC(=N)N)NC(=O)CN)C(=O)O [GR20]
Effect on nuclear transport of fluorescent NLS-NES shuttle proteins [2]: unable to impede nuclear transport

N=C(N)NCCC[C@H](NC(=O)[C@@H]1CCCN1C(=O)[C@H](CCCNC(=N)N)NC(=O)[C@@H]1CCCN1C(=O)[C@H](CCCNC(=N)N)NC(=O)[C@@H]1CCCN1C(=O)[C@H](CCCNC(=N)N)NC(=O)[C@@H]1CCCN1C(=O)[C@H](CCCNC(=N)N)NC(=O)[C@@H]1CCCN1C(=O)[C@H](CCCNC(=N)N)NC(=O)[C@@H]1CCCN1C(=O)[C@H](CCCNC(=N)N)NC(=O)[C@@H]1CCCN1C(=O)[C@H](CCCNC(=N)N)NC(=O)[C@@H]1CCCN1C(=O)[C@H](CCCNC(=N)N)NC(=O)[C@@H]1CCCN1C(=O)[C@H](CCCNC(=N)N)NC(=O)[C@@H]1CCCN1C(=O)[C@H](CCCNC(=N)N)NC(=O)[C@@H]1CCCN1C(=O)[C@H](CCCNC(=N)N)NC(=O)[C@@H]1CCCN1C(=O)[C@H](CCCNC(=N)N)NC(=O)[C@@H]1CCCN1C(=O)[C@H](CCCNC(=N)N)NC(=O)[C@@H]1CCCN1C(=O)[C@H](CCCNC(=N)N)NC(=O)[C@@H]1CCCN1C(=O)[C@H](CCCNC(=N)N)NC(=O)[C@@H]1CCCN1C(=O)[C@H](CCCNC(=N)N)NC(=O)[C@@H]1CCCN1C(=O)[C@H](CCCNC(=N)N)NC(=O)[C@@H]1CCCN1C(=O)[C@H](CCCNC(=N)N)NC(=O)[C@@H]1CCCN1C(=O)[C@H](CCCNC(=N)N)NC(=O)[C@@H]1CCCN1)C(=O)O [PR20] (H-PRPRPRPRPRPRPRPRPRPRPRPRPRPRPRPRPRPRPRPR-OH; N-terminus and C-terminus assumed)
Inhibition of proteosomal degradation (proteasome): shown to inhibit proteosomal degradation | Binding to FG-domain polymers [3]: bind and stabilize Nup54 and 98 FG-domain polymers | Effect on nuclear import of NLS-BSA [4]: impeded nuclear import of NLS-BSA | Effect on nuclear transport of fluorescent NLS-NES shuttle proteins [2]: unable to impede nuclear transport

CC(Nc1nc(N2CCCC2)nc2ccccc12)c1ccccc1 (stereo not shown) [importazole, Importazole, reference compound]
Effect on Rango import in permeabilized neurons [5]: can be inhibited

AF488-GR10: GR10 labeled with Alexa Fluor 488 C5-maleimide (GRGRGRGRGRGRGRGRGRGRKC(Alexa Fluor 488 C5‑maleimide))
Location of AF488-labeled DPR in fractionated transport reactions (confocal) [6]: fully sedimented into the pellet

AF488-PR10: PR10 labeled with Alexa Fluor 488 C5-maleimide (PRPRPRPRPRPRPRPRPRPRKC(Alexa Fluor 488 C5‑maleimide))
Location of AF488-labeled DPR in fractionated transport reactions (confocal) [6]: remained in the supernatant and was present at the nuclear envelope
